# Laboratory results published in patent US20220175777A1, “Inhibitors of Multidrug Resistance Transporter P-Glycoprotein” (Southern Methodist University, priority 2014, published 2022).
# Assays:
# DU145 = assay: Intrinsic toxicity, MTT survival; assay type: cell-based; details: Homo sapiens, DU-145, 48 hours, ± standard error
# Protocol: (§1) Percent survival determined by MTT assay calculated relative to cells treated with equal volume DMSO vehicle and represent the mean±SEM from 2-4 separate studies, each study performed in triplicate wells.
# (§2) The intrinsic in vitro toxicities of identified compounds were evaluated to determine their potential therapeutic window. This was assessed in a noncancerous cell line (HFL1) and the human prostate cancer cell lines DU145 and the MDR sub-line DU145TxR.
# DU145TXR [1] = assay: Intrinsic toxicity, MTT survival; assay type: cell-based, human; details: Homo sapiens; intrinsic toxicity, 48 hours, MTT; ± standard error
# Protocol: as §1, §2
# DU145TXR [2] = assay: Potentiation of 500 nM paclitaxel cytotoxicity (MTT); assay type: cell-based, human
# Protocol: FIGS. 4A and 4B show the in silico identified P-gp inhibitors potentiate the cytotoxic effects of paclitaxel in the MDR human prostate cancer cell line DU145TxR. […] Values represent the mean±SEM of at least two separate experiments performed in triplicate.
# A range of experimental inhibitor concentrations was added in the presence of 500 nM paclitaxel and the cell viability was assessed using the MTT assay.
# In order to compare the efficacy of inhibitors, the potentiation concentration of inhibitor resulting in 50% reduction in cell viability, PC50, in the presence of 500 nM paclitaxel was calculated from the data in FIG. 4A.
# [3] = molecular target: Normal Human MDR1 P-glycoprotein (Homo sapiens, UniProt P08183); assay: ATP hydrolysis by human P-gp assembled into membrane nanodiscs; assay type: biochemical; details: human MDR1 P-gp in nanodiscs
# P-gp = P-gp (Homo sapiens, UniProt P08183)
# Protocol: Stimulation of basal ATPase by 29-variants was used as an indicator that a compound may be a P-gp transport substrate. Effects on stimulated P-gp ATPase activity indicated whether a compound directly interfered with ATP usage by the protein (***, p<0.001; **, p<0.01; *, p<0.1; NS, not significant). Quantitative cellular accumulation of 29-variants was performed using LC-MS/MS and is presented as a ratio of the cellular amounts of 29-variants in the presence of P-gp inhibitor, tariquidar, divided by amounts accumulated in its absence. […] Binding of an ATP analog, SL-ATP, to P-gp was used to determine whether ATP binding to P-gp was affected by the 29-variants. Values+/−standard deviations are shown for at least three different P-gp preparations and three independent SL-ATP titration experiments. The values for SL-ATP binding in the presence of 29 were taken directly from Brewer et al. (2014).
# Intracellular accumulation of compound 29 variants. Cell accumulation assays for each of the 29 variants were performed as in reference^28 to more directly assess whether the compounds were indeed transport substrates for P-gp.
# DU145TXR [4] = assay: Resensitization of DU145TXR to paclitaxel by 29 variants (MTT cell viability); assay type: cell-based, human; details: for Fold vs PTX ÷ 29: compared to parental compound 29
# DU145TXR [5] = assay: Dose dependent sensitization of MDR cell line to paclitaxel (MTT); assay type: cell-based, human; details: 25 μM compound
# Protocol: FIGS. 6A to 6C show the dose dependent sensitization of MDR prostate cancer cell line DU145TxR. […] For reference, the DU145TxR (closed circle) and DU145 (open circle) incubated with paclitaxel only are also included. Values are mean±SEM from at least 2 separate experiments performed in triplicate wells. The data were normalized to the intrinsic toxicities as determined in studies from FIGS. 5A to 5C of each of the compounds for each of the corresponding concentrations.
# Dose Dependent Sensitization of MDR Prostate Cancer Cell Line: To determine the degree to which the MDR prostate cancer cell line DU145TxR could be sensitized to paclitaxel the inventors determined cell survival at increasing concentrations of paclitaxel in the presence of three concentrations of P-gp inhibitors. FIGS. 6A, 6B and 6C show the survival of DU145TxR at increasing concentration of paclitaxel in the presence of 5 μM, 10 μM and 25 μM of the experimental compounds, respectively. The open circles represent the parental DU145 cell line in the presence of paclitaxel without addition of any inhibitor compound. The closed circles represent the survival of the multidrug resistant DU145TxR in the presence of paclitaxel alone. […] At that concentration over 10-fold increase in paclitaxel sensitivity in DU145TxR is observed compared to DU145TxR without P-gp inhibitors. Doubling the concentration of the compounds to 10 μM approximately doubled the DU145TxR sensitivity to paclitaxel.
# Sequence of P-gp (P08183 whole entry): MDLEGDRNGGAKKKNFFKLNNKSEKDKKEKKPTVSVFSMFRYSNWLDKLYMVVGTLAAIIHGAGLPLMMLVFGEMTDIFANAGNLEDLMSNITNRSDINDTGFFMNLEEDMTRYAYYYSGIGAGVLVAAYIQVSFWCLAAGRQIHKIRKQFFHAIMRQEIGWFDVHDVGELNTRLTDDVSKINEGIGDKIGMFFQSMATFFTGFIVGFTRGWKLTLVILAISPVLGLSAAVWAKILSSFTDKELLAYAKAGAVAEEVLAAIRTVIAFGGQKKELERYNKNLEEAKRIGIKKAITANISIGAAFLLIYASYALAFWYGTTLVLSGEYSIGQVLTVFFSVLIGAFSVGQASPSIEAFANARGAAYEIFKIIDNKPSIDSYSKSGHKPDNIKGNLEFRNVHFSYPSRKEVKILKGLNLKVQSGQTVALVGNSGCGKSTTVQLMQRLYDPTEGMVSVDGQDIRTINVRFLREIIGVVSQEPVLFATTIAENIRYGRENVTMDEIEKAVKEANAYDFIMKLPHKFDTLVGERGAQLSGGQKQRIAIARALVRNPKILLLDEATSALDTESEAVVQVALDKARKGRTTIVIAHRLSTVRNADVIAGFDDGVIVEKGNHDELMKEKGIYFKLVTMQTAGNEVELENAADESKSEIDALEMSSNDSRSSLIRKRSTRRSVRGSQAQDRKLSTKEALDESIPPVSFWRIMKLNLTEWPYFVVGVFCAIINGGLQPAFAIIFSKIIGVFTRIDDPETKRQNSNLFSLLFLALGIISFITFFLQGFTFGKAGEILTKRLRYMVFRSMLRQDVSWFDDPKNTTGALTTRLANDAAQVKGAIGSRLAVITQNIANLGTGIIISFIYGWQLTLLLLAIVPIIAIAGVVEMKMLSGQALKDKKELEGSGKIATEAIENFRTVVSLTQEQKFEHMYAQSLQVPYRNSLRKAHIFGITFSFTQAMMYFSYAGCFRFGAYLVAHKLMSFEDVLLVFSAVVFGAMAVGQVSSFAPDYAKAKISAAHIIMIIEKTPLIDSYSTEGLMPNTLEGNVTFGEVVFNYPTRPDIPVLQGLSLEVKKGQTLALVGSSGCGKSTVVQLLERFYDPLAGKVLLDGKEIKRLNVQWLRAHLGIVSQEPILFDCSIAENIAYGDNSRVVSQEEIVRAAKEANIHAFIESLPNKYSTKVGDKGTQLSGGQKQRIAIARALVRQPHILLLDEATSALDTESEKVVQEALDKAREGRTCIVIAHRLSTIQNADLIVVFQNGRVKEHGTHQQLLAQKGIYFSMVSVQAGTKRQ
# Sequence of Normal Human MDR1 P-glycoprotein (P08183 whole entry): as above
smiles,measurement,setting,value
"Cc1cc(C)c(-c2cc(NC(=O)CSc3n[nH]c(C4CC4)n3)n(-c3ccccc3)n2)cc1C [SMU-29, 2-[(5-cyclopropyl-1H-1,2,4-triazol-3-yl)sulfanyl]-N-[2-phenyl-5-(2,4,5-trimethylphenyl)pyrazol-3-yl]acetamide]",IC50,DU145,33.4 ± 0.01 µM
same,IC50,DU145TXR [1],37.9 ± 0.02 µM
same,Effect on paclitaxel sensitivity,DU145TXR [2]; 50 nM-25 μM inhibitor with 500 nM paclitaxel,strongly affected the sensitivity
same,EC50,"DU145TXR [2]; in the presence of 500 nM paclitaxel, 48 hours, read-out: PC50, potentiation concentration of inhibitor resulting in 50% reduction in cell viability",2.33 ± 0.01 µM
same,Basal ATPase (% of DMSO),[3]; basal,88 ± 9 % of DMSO
same,Stimulated ATPase (% of DMSO),[3]; stimulated,62 ± 3 % of DMSO
same,Intracellular accumulation in the presence versus absence of TQR,P-gp,no significant difference
same,Transport substrate for P-gp,P-gp; not told,not a transport substrate
same,Fold vs PTX ÷ 29,DU145TXR [4]; 3 μM inhibitor,1 Fold
same,Fold vs PTX,"DU145TXR [4]; 3 μM inhibitor, fold improvement of PTX sensitivity vs PTX alone",3 Fold
same,Fold vs PTX ÷ 29,DU145TXR [4]; 5 μM inhibitor,1 Fold
same,Fold vs PTX,"DU145TXR [4]; 5 μM inhibitor, vs PTX alone",11 Fold
same,Fold vs PTX ÷ 29,DU145TXR [4]; 7 μM inhibitor,1 Fold
same,Fold vs PTX,"DU145TXR [4]; 7 μM inhibitor, vs PTX alone",36 Fold
same,Fold vs PTX ÷ 29,DU145TXR [4]; 10 μM inhibitor,1 Fold
same,Fold vs PTX,"DU145TXR [4]; 10 μM inhibitor, vs PTX alone",101 Fold
same,Sensitization to paclitaxel,DU145TXR [5],800 fold
